Drawing on publication PMC9230548, “Synthesis and Biological Evaluation of Novel Synthetic Indolone Derivatives as Anti-Tumor Agents Targeting p53-MDM2 and p53-MDMX” (Molecules, 2022), this text covers Ki and melting point for 27 compounds.

Like-named read-outs stand apart in the source and are kept apart here.

In one data set the target is T1, MDMX (Homo sapiens, UniProt O15151).
T1 sequence (O15151 1-490): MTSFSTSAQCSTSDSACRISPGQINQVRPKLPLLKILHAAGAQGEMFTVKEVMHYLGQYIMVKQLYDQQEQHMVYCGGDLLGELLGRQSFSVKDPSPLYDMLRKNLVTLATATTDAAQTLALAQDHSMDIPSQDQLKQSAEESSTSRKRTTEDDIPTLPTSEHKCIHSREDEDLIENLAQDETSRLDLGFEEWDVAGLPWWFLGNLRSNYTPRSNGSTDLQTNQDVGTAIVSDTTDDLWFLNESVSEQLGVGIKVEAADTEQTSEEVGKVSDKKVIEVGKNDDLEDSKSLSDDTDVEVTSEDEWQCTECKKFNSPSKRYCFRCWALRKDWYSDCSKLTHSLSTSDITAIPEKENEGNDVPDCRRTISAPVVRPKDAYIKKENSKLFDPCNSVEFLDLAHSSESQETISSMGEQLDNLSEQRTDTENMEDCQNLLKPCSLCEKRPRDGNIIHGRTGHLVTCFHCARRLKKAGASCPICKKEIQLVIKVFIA
In words: fluorescence polarization assay, MDMX binding.

The target in another data set is MDM2 (Homo sapiens, UniProt Q00987). Briefly: fluorescence polarization assay, MDM2 binding.
The mark [1] stands for this setting: read-out: Ki (μM) ± SD MDMX, fluorescence polarization, PMDM-F peptide, pH 7.5.
[2] abbreviates: read-out: Ki (μM) ± SD MDM2, fluorescence polarization, PMDM-F peptide, pH 7.5.

Sequence of MDM2 (Q00987 whole entry): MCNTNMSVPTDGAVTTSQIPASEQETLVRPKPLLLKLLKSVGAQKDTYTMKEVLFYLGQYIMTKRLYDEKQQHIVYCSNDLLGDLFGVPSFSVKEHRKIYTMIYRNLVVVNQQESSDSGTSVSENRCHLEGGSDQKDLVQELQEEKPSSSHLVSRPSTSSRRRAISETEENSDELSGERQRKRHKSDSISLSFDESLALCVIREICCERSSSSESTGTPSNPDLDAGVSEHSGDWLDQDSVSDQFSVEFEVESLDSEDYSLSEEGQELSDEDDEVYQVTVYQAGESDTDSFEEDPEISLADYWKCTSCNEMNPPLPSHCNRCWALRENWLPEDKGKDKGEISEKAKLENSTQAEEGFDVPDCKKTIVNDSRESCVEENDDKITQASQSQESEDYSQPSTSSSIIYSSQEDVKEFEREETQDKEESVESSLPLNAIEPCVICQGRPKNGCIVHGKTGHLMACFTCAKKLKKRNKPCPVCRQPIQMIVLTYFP
Method for MDM2: (§1) The MDM2 and MDMX binding evaluation for the target compounds was carried out using the fluorescence polarization assay.
(§2) Dose-dependent MDM2 and MDMX binding evaluations were carried out using the fluorescence polarization assay.
(§3) A total of 30 nM preincubated (30 min) MDM2 (or MDMX) and 10 nM PMDM-F peptide in reaction buffer (100 μL, potassium phosphate, 100 mM; bovine gamma globulin, 100 mg/mL; sodium azide, 0.02%) were added into a 96-well plate containing the tested compounds at pH 7.5.
Method for MDMX: as §1, §2, §3

As a reminder, the Ki is the dissociation constant of the complex between target and ligand, obtained from inhibition or displacement. One may read the melting point as the temperature, or range, at which the solid turns liquid. With `O=C1/C(=C/c2ccccc2Cl)c2ccccc2N1S(=O)(=O)c1ccccc1` [Compound A1, (E)-3-(2-chlorobenzylidene)-1-(phenylsulfonyl)indolin-2-one], the melting point fell in the range of 138.2 to 139.9 °C. This compound yielded a Ki at MDMX above 50 µM. Besides, at MDM2, affinity was put at a Ki of 4.39 ± 0.82 µM.
In the case of `Cc1ccccc1S(=O)(=O)N1C(=O)/C(=C/c2ccccc2Cl)c2ccccc21` [Compound A2, (E)-3-(2-chlorobenzylidene)-1-(o-tolylsulfonyl)indolin-2-one], the Ki at MDMX is above 50 µM; on MDM2, 7.23 ± 1.03 µM.
For `Cc1cccc(S(=O)(=O)N2C(=O)/C(=C/c3ccccc3Cl)c3ccccc32)c1` [Compound A3, (E)-3-(2-chlorobenzylidene)-1-(m-tolylsulfonyl)indolin-2-one] the same measures were above 50 µM and 5.58 ± 0.99 µM.
Turning to `Cc1ccc(S(=O)(=O)N2C(=O)/C(=C/c3ccccc3Cl)c3ccccc32)cc1` [Compound A4, (E)-3-(2-chlorobenzylidene)-1-tosylindolin-2-one], the melting point lay within 148.9 to 150.5 °C. At MDMX, this compound registered a Ki above 50 µM. For the same compound, the inhibitory constant (Ki) at MDM2 is 10.2 ± 1.45 µM.
For `O=C1/C(=C/c2ccccc2Cl)c2ccccc2N1S(=O)(=O)c1ccccc1Cl` [Compound A5, (E)-3-(2-chlorobenzylidene)-1-((2-chlorophenyl)sulfonyl)indolin-2-one] the same measures were 157.2 to 158.1 °C, 42.1 ± 6.35 µM and 3.43 ± 0.57 µM.
Consider `O=C1/C(=C/c2ccccc2Cl)c2ccccc2N1S(=O)(=O)c1ccc(Cl)cc1` [Compound A7, (E)-3-(2-chlorobenzylidene)-1-((4-chlorophenyl)sulfonyl)indolin-2-one], for which the melting point is 172.4 to 173.1 °C. Also, at MDMX, the affinity corresponds to a Ki of 20.4 ± 2.62 µM. Besides, the inhibition constant (Ki) on MDM2 amounted to 1.53 ± 0.19 µM.
The like results for `O=C1/C(=C/c2cccc(Cl)c2)c2ccccc2N1S(=O)(=O)c1ccccc1` [Compound A8, (E)-3-(3-chlorobenzylidene)-1-(phenylsulfonyl)indolin-2-one] were, in that order, 115.1 to 117.3 °C, 10.3 ± 1.45 µM and 1.47 ± 0.15 µM.
In the case of `Cc1ccccc1S(=O)(=O)N1C(=O)/C(=C/c2cccc(Cl)c2)c2ccccc21` [Compound A9, (E)-3-(3-chlorobenzylidene)-1-(o-tolylsulfonyl)indolin-2-one], the melting point fell in the range of 140.9 to 143.2 °C. For the same compound, the Ki on MDMX (setting [1]) is above 50 µM. Besides, the inhibitory constant (Ki) at MDM2 (setting [2]) was 6.95 ± 0.97 µM.
`Cc1cccc(S(=O)(=O)N2C(=O)/C(=C/c3cccc(Cl)c3)c3ccccc32)c1` [Compound A10, (E)-3-(3-chlorobenzylidene)-1-(m-tolylsulfonyl)indolin-2-one] gave a melting point of 147.4 to 149.2 °C. Moreover, the inhibitory constant (Ki) at MDMX (setting [1]) was above 50 µM. For the same compound, the inhibitory constant (Ki) at MDM2 (setting [2]) was 5.36 ± 1.06 µM.
In the case of `Cc1ccc(S(=O)(=O)N2C(=O)/C(=C/c3cccc(Cl)c3)c3ccccc32)cc1` [Compound A11, (E)-3-(3-chlorobenzylidene)-1-tosylindolin-2-one], the melting point is 136.3 to 138.1 °C. The compound further had a Ki on MDMX above 50 µM. This compound registered a Ki at MDM2 of 5.19 ± 1.25 µM.
Take `O=C1/C(=C/c2cccc(Cl)c2)c2ccccc2N1S(=O)(=O)c1cccc([N+](=O)[O-])c1` [Compound A22, (E)-3-(3-chlorobenzylidene)-1-((3-nitrophenyl)sulfonyl)indolin-2-one]: the melting point lay within 195.3 to 197 °C. In addition, at MDMX, affinity was put at a Ki of 13.6 ± 1.47 µM. For the same compound, the Ki at MDM2 was 1.39 ± 0.21 µM.
Turning to `COc1ccc(S(=O)(=O)N2C(=O)/C(=C/c3cccc(Cl)c3)c3ccccc32)cc1` [Compound A23, (E)-3-(3-chlorobenzylidene)-1-((4-methoxyphenyl)sulfonyl)indolin-2-one], the melting point was in the range of 175.1 to 176.7 °C. At MDMX, this compound came in with an inhibition constant Ki of 42.2 ± 4.73 µM. This compound yielded an inhibition constant (Ki) on MDM2 of 3.77 ± 0.45 µM.
The compound `Cc1ccccc1S(=O)(=O)N1C(=O)/C(=C/c2ccc(Cl)cc2)c2ccccc21` [Compound A24, (E)-3-(4-chlorobenzylidene)-1-(o-tolylsulfonyl)indolin-2-one] had a melting point of 155.2 to 157.1 °C. Moreover, the inhibitory constant (Ki) on MDMX (setting [1]) is 34.7 ± 4.02 µM. For the same compound, the inhibition constant Ki on MDM2 (setting [2]) amounted to 3.17 ± 0.37 µM.
`Cc1cccc(S(=O)(=O)N2C(=O)/C(=C/c3ccc(Cl)cc3)c3ccccc32)c1` [Compound A25, (E)-3-(4-chlorobenzylidene)-1-(m-tolylsulfonyl)indolin-2-one]: the inhibitory constant (Ki) at MDMX (setting [1]) was above 50 µM; on MDM2 (setting [2]), 4.93 ± 0.47 µM.
In turn, `Cc1ccc(S(=O)(=O)N2C(=O)/C(=C/c3ccc(Cl)cc3)c3ccccc32)cc1` [Compound A26, (E)-3-(4-chlorobenzylidene)-1-tosylindolin-2-one] yielded a melting point of 134.1 to 135.6 °C. Further, on MDMX (setting [1]), the Ki is above 50 µM. In addition, on MDM2 (setting [2]), the Ki was 4.68 ± 0.39 µM.
As for `O=C1/C(=C/c2ccc(Cl)cc2)c2ccccc2N1S(=O)(=O)c1ccccc1` [Compound A28, (E)-3-(4-chlorobenzylidene)-1-(phenylsulfonyl)indolin-2-one], the Ki on MDMX was 37.4 ± 3.57 µM; on MDM2, 2.18 ± 0.29 µM.
`O=C1/C(=C/c2cccc(Cl)c2)c2ccc(Cl)cc2N1S(=O)(=O)c1cccc(Cl)c1` [Compound A30, (E)-6-chloro-3-(3-chlorobenzylidene)-1-((3-chlorophenyl)sulfonyl)indolin-2-one] yielded a melting point of 132.6 to 133.8 °C. Further, the inhibition constant (Ki) on MDMX (setting [1]) was 29 ± 2.18 µM. Also, the inhibitory constant (Ki) at MDM2 (setting [2]) was found to be 1.39 ± 0.15 µM.
In turn, `O=C1/C(=C/c2ccccc2Cl)c2ccccc2N1C(=O)c1ccccc1Cl` [Compound B1, (E)-1-(2-chlorobenzoyl)-3-(2-chlorobenzylidene)indolin-2-one] came in with a melting point of 214.5 to 216.2 °C. The compound also displayed a Ki at MDMX above 50 µM. Also, affinity at MDM2 was put at a Ki of 10.2 ± 2.01 µM.
For `O=C1/C(=C/c2ccccc2Cl)c2ccccc2N1C(=O)c1cccc(Cl)c1` [Compound B2, (E)-1-(3-chlorobenzoyl)-3-(2-chlorobenzylidene)indolin-2-one] the same measures were 219 to 220.8 °C, above 50 µM and 8.43 ± 1.58 µM.
`O=C1/C(=C/c2ccccc2Cl)c2ccccc2N1C(=O)c1ccc(Cl)cc1` [Compound B3, (E)-1-(4-chlorobenzoyl)-3-(2-chlorobenzylidene)indolin-2-one]: the melting point was in the range of 221.3 to 222.7 °C. At MDMX, this compound registered a Ki above 50 µM. On MDM2, this compound came in with an inhibition constant Ki of 7.86 ± 1.34 µM.
For `Cc1ccccc1C(=O)N1C(=O)/C(=C/c2ccccc2Cl)c2ccccc21` [Compound B4, (E)-3-(2-chlorobenzylidene)-1-(2-methylbenzoyl)indolin-2-one] the same measures were 111.2 to 112.8 °C, above 50 µM and 16.4 ± 2.77 µM.
In turn, `Cc1cccc(C(=O)N2C(=O)/C(=C/c3ccccc3Cl)c3ccccc32)c1` [Compound B5, (E)-3-(2-chlorobenzylidene)-1-(3-methylbenzoyl)indolin-2-one] yielded a melting point of 128.2 to 129.7 °C. The compound further displayed an inhibition constant (Ki) at MDMX above 50 µM. Moreover, the affinity on MDM2 corresponds to a Ki of 20.2 ± 3.05 µM.
The like results for `Cc1ccc(C(=O)N2C(=O)/C(=C/c3ccccc3Cl)c3ccccc32)cc1` [Compound B6, (E)-3-(2-chlorobenzylidene)-1-(4-methylbenzoyl)indolin-2-one] were, in that order, 145.3 to 146.9 °C, above 50 µM and 22.4 ± 3.64 µM.
In turn, `O=C1/C(=C/c2cccc(Cl)c2)c2ccccc2N1C(=O)c1ccccc1Cl` [Compound B7, (E)-1-(2-chlorobenzoyl)-3-(3-chlorobenzylidene)indolin-2-one] gave a melting point of 108.3 to 109.7 °C. The compound also showed an inhibitory constant (Ki) on MDMX above 50 µM. Besides, affinity on MDM2 was put at a Ki of 14.9 ± 2.37 µM.
For the compound `O=C1/C(=C/c2cccc(Cl)c2)c2ccccc2N1C(=O)c1cccc(Cl)c1` [Compound B8, (E)-1-(3-chlorobenzoyl)-3-(3-chlorobenzylidene)indolin-2-one], the melting point lay within 112.4 to 114 °C. In addition, on MDMX, the Ki is above 50 µM. Besides, on MDM2, the affinity, expressed as Ki, was 8.63 ± 1.55 µM.
In turn, `O=C1/C(=C/c2cccc(Cl)c2)c2ccccc2N1C(=O)c1ccc(Cl)cc1` [Compound B9, (E)-1-(4-chlorobenzoyl)-3-(3-chlorobenzylidene)indolin-2-one] gave a melting point of 103.5 to 104.8 °C. This compound registered an inhibition constant (Ki) at MDMX above 50 µM. Besides, on MDM2, the Ki was 15.9 ± 1.96 µM.
In the case of `O=C1/C(=C/c2ccc(Cl)cc2)c2ccccc2N1C(=O)c1cccc(Cl)c1` [Compound B10, (E)-1-(3-chlorobenzoyl)-3-(4-chlorobenzylidene)indolin-2-one], the melting point was in the range of 141.3 to 142.3 °C. For the same compound, the Ki on MDMX is above 50 µM. Also, at MDM2, affinity was put at a Ki of 12.5 ± 1.04 µM.
